Data reported in patent US20210254014A1, “GROWTH INHIBITOR” (Kyoto University, priority 2018, published 2021).

Tests used:
[1] = test system: immunodeficient NOD/SCID mice having streptozotocin-induced insulin-deficient diabetes mellitus; test: Transplantation of the FGF receptor 1 inhibitor-treated insulin-producing cell population beneath the kidney capsule; human C-peptide in blood and blood glucose; assay type: in vivo; conditions: cell population treated with 1 μM for 12 days
Procedure: In the description below, the preparation of mice and the transplantation of cells were performed in accordance with known methods.
The insulin-producing cell population obtained by culture in the medium for induction of differentiation containing CAS192705-79-6 in the preceding section (1) or an insulin-producing cell population obtained by culture in a medium for induction of differentiation free from CAS192705-79-6 as a comparative example was transplanted beneath the capsule of the kidney using immunodeficient NOD/SCID mice having streptozotocin-induced insulin-deficient diabetes mellitus. For follow-up after the transplantation, human C-peptide concentrations in blood and blood glucose levels were measured. […]

rat myoblasts [2] = conditions: cited from earlier work
[3] = test system: human placental blood vessels; conditions: cited from earlier work
Ki67-positive cells [4] = test: Ki67-positive cells by flow cytometry in the insulin-producing cell population obtained by treating an endocrine progenitor cell population for 12 days (Example 1); assay type: cell-based, human; conditions: 1 μM, mean ± standard deviation of five experiments, absent control 10.78 ± 4.09%
Procedure: The induction of differentiation of the endocrine progenitor cell population into an insulin-producing cell population was carried out according to the above step 6) or the previous report (Nature Biotechnology 2014; 32: 1121-1133).
(§1) The endocrine progenitor cell population obtained by the induction of differentiation from iPS cells were cultured for 12 days in a medium for induction of differentiation (Improved MEM/1% B27/Penicillin Streptomycin) containing differentiation factors (ALK5 inhibitor II, T3, LDN, γ-secretase inhibitor RO, and ascorbic acid) and an FGF receptor 1 inhibitor (CAS192705-79-6) to obtain an insulin-producing cell population. The number of Ki67-positive cells in the obtained cell population was evaluated by flow cytometry.

rat myoblasts [5] = conditions: cited from earlier work; remark: listed apart in the source
Ki67-positive cells [6] = test: Ki67-positive cells by flow cytometry, timing of treatment during insulin-producing cell production (Example 2); assay type: cell-based; conditions: 1 μM, mean ± SD of three experiments, absent control 7.57 ± 1.05%
Procedure: as §1, with “1) An” for “The”, “11” for “12”, “population.” for “population. The number of Ki67-positive cells in the obtained cell population was evaluated by flow cytometry.”
(§2) 2) An endocrine progenitor cell population obtained by the induction of differentiation from iPS cells were cultured for 4 days in a medium for induction of differentiation (Improved MEM/1% B27/Penicillin Streptomycin) containing differentiation factors (ALK5 inhibitor II, T3, LDN, γ-secretase inhibitor RO, and ascorbic acid) and thereby induced to differentiate into an insulin-producing cell population. Subsequently, an FGF receptor 1 inhibitor (CAS192705-79-6, 1 μM) was added to a medium for induction of differentiation (Improved MEM/1% B27/Penicillin Streptomycin) containing differentiation factors (ALK5 inhibitor II, T3, LDN, γ-secretase inhibitor RO, and ascorbic acid), and the cells were cultured therein for 7 days.
as §2, with “3) An” for “2) An”, “for 7” for “for 4”, “for 4” for “for 7”, “days. […]” for “days.”
The number of Ki67-positive cells in the cell population obtained by each of the above methods 1), 2), and 3) was counted by flow cytometry to determine the proportion of Ki67-positive cells in each cell population.

Ki67-positive cells [7] = test: Ki67-positive cells by flow cytometry after 4 days of treatment with FGFR1 inhibitors at three concentrations (Example 3); assay type: cell-based
Procedure: The number of Ki67-positive cells in the obtained cell population was evaluated by flow cytometry.

[8] = test system: insulin-positive (and NKX6.1-positive) cells; test: Insulin-positive (and NKX6.1-positive) cells by flow cytometry, timing of treatment (Example 2); assay type: cell-based; conditions: 1 μM, relative value, untreated control defined as 100%
Procedure: as §1, with “1) An” for “The”, “11” for “12”, “population.” for “population. The number of Ki67-positive cells in the obtained cell population was evaluated by flow cytometry.”
as §2
3) An endocrine progenitor cell population obtained by the induction of differentiation from iPS cells were cultured for 7 days in a medium for induction of differentiation (Improved MEM/1% B27/Penicillin Streptomycin) containing differentiation factors (ALK5 inhibitor II, T3, LDN, γ-secretase inhibitor RO, and ascorbic acid) and thereby induced to differentiate into an insulin-producing cell population. […]
The number of insulin-positive (and NKX6.1-positive) cells in the cell population obtained by each of the above methods 1), 2), and 3) was counted by flow cytometry. The proportion of insulin-positive (and NKX6.1-positive) cells in each method was calculated as a relative value when the number of insulin-positive (and NKX6.1-positive) cells in the control cell population obtained by the above method 4) was defined as 100%.

[9] = test system: endocrine progenitor cells derived from human iPS cells; conditions: cited from earlier work
grafts = test: Autopsy findings and immunohistological staining of grafts excised 5 weeks after transplantation; assay type: in vivo, mice; conditions: cell population treated with 1 μM for 12 days, compared with untreated cell population
From the text: The insulin-producing cell population obtained by culture in the medium for induction of differentiation containing CAS192705-79-6 in the preceding section (1) or an insulin-producing cell population obtained by culture in a medium for induction of differentiation free from CAS192705-79-6 as a comparative example was transplanted beneath the capsule of the kidney using immunodeficient NOD/SCID mice having streptozotocin-induced insulin-deficient diabetes mellitus. For follow-up after the transplantation, human C-peptide concentrations in blood and blood glucose levels were measured. The grafts were excised 5 weeks after the transplantation.
The excised grafts were fixed and dehydrated, and then, frozen sections were prepared and subjected to immunohistological staining in order to evaluate unintended cells. The cells of interest that could be expected to maturate into pancreatic islet cells in vivo were evaluated using insulin positivity (and NKX6.1 positivity) or glucagon positivity as an indicator, and unintended cells having the possibility of adversely affecting long-term graft survival of the cells of interest were evaluated using Ki67 positivity as an indicator.

[10] = Table 4, 0.3 μM, absent control 4.13%
[11] = Table 4, 1 μM, absent control 4.13%

**Q.** With `COc1cc(OC)cc(-c2cc3cnc(N)nc3nc2NC(=O)NC(C)(C)C)c1` [CAS192705-79-6, 1-[2-amino-6-(3,5-dimethoxyphenyl)-pyrido(2,3-d)pyrimidin-7-yl]-3-tert-butylurea] as the compound, how does the “Human C-peptide concentration in blood 4 months after transplantation” value ([1]; transplanted beneath the kidney capsule, untreated cells 1440 ± 573) read?
**A.** The value was 1486 ± 305 pM.

**Q.** What about the “Blood glucose level 4 months after transplantation” value ([1]; 4 months later, untreated cells 85 ± 16) of the same compound?
**A.** The value was 86 ± 22 mg/dL.

**Q.** What about the “Blood glucose level at time of transplantation” value ([1]; at time of transplantation (baseline)) of the same compound?
**A.** Its value is 516 ± 33 mg/dL.

**Q.** What about the “Cell proliferation caused by bFGF stimulation” value (rat myoblasts [2]) of the same compound?
**A.** The value was “inhibit cell proliferation caused by bFGF stimulation”.

**Q.** What about the Elongation of microvessels [3] of the same compound?
**A.** The Elongation of microvessels was “inhibit the elongation of microvessels”.

**Q.** What about the “Content percentage of Ki67-positive cells (before transplantation)” value (Ki67-positive cells [4]) of the same compound?
**A.** The value was 0.98 ± 0.29%.

**Q.** And the “Cell proliferation caused by PDGE stimulation” value (rat myoblasts [5])?
**A.** Its value is “not inhibit cell proliferation caused by PDGE stimulation”.

**Q.** And the “Proportion of Ki67-positive cells” value (Ki67-positive cells [6]; for last 4 days)?
**A.** The value was 0.57 ± 0.15%.

**Q.** What about the “Proportion of Ki67-positive cells” value (Ki67-positive cells [6]; for last 7 days) of the same compound?
**A.** The value was 0.47 ± 0.15%.

**Q.** What about the “Proportion of Ki67-positive cells” value (Ki67-positive cells [6]; from start (11 days)) of the same compound?
**A.** Its value is 0.57 ± 0.35%.

**Q.** What about the “Proportion of Ki67-positive cells (%)” value (Ki67-positive cells [7]; Table 4, 0.1 μM, absent control 4.13%) of the same compound?
**A.** The value was 2.15%;.

**Q.** What about the “Proportion of Ki67-positive cells (%)” value (Ki67-positive cells [7]; [10]) of the same compound?
**A.** The value was 0.99%;.

**Q.** What about the “Proportion of Ki67-positive cells (%)” value (Ki67-positive cells [7]; [11]) of the same compound?
**A.** Its value is 0.7%;.

**Q.** And the “Proportion of insulin-positive (and NKX6.1-positive) cells” value (shortened to “Proportion of insulin-positive”) ([8]; for last 4 days)?
**A.** The value was 91 ± 16%.

**Q.** What about the “Proportion of insulin-positive” value ([8]; for last 7 days) of the same compound?
**A.** Its value is 88 ± 13%.

**Q.** What about the “Proportion of insulin-positive” value ([8]; from start (11 days)) of the same compound?
**A.** The value was 45 ± 15%.

**Q.** What about the “Differentiation of endocrine progenitor cells” value [9] of the same compound?
**A.** Its value is “can be promoted”.

**Q.** And the “Bloatedness of the grafts” value (grafts)?
**A.** The value was “drastic inhibition of bloatedness of the grafts”.

**Q.** For `COCCCOc1ccnc(C[S+]([O-])c2nc3ccccc3[nH]2)c1C` (stereo not drawn) [E-3810], which “Proportion of Ki67-positive cells (%)” value (Ki67-positive cells [7]; [10]) is on record?
**A.** Its value is 2.74%;.

**Q.** What about the “Proportion of Ki67-positive cells (%)” value (Ki67-positive cells [7]; [11]) of the same compound?
**A.** Its value is 1.51%;.

**Q.** What about the “Proportion of Ki67-positive cells (%)” value (Ki67-positive cells [7]; Table 4, 10 μM, absent control 4.13%) of the same compound?
**A.** The value was 0.67%;.

**Q.** Which results are given for `CCN(CC)CCCCNc1ncc2cc(-c3cc(OC)cc(OC)c3)c(NC(=O)NC(C)(C)C)nc2n1` [PD-173074]?
**A.** Proportion of Ki67-positive cells (%) (Ki67-positive cells [7]; Table 5, 0.1 μM, absent control 2.7%): 0.7%;; Proportion of Ki67-positive cells (%) (Ki67-positive cells [7]; Table 5, 1 μM, absent control 2.7%): 0.7%;; Proportion of Ki67-positive cells (%) (Ki67-positive cells [7]; Table 5, 5 μM, absent control 2.7%): 0.5%;
